# Source: PubChem BioAssay (NCI)
# “And” between values parts separate entries of the source, which are not always exact repeats. Identical values can stand only once.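 Growth conditions: 96-well plates. Treatment: test compound, 48 hours, 5 concentrations. Analysis: linear interpolation between bracketing concentrations; unreached endpoints set to highest concentration. GI50 marks 50% less growth. The concentration for full growth arrest is given as TGI.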
# Tests used:
# Assay in all cases: NCI-60 cell line screen, 48 h
# SR leukemia = system: SR leukemia
# SK-MEL-2 melanoma = system: SK-MEL-2 melanoma
# M14 melanoma = system: M14 melanoma
# MOLT-4 leukemia = system: MOLT-4 leukemia
# SF-268 CNS = system: SF-268 CNS
# SN12C renal = system: SN12C renal
# SNB-75 CNS = system: SNB-75 CNS
# OVCAR-3 ovarian = system: OVCAR-3 ovarian
# NCI-H23 lung = system: NCI-H23 lung
# HOP-62 NSCLC = system: HOP-62 NSCLC
# MALME-3M melanoma = system: MALME-3M melanoma
# SF-295 CNS = system: SF-295 CNS
SMILES,TGI (SR leukemia),TGI (SK-MEL-2 melanoma),TGI (M14 melanoma),TGI (MOLT-4 leukemia),TGI (SF-268 CNS),TGI (SN12C renal),TGI (SNB-75 CNS),TGI (OVCAR-3 ovarian),TGI (NCI-H23 lung),TGI (HOP-62 NSCLC),TGI (MALME-3M melanoma),TGI (SF-295 CNS),GI50 (M14 melanoma) [µM],GI50 (SN12C renal) [µM],GI50 (OVCAR-3 ovarian) [µM],GI50 (NCI-H23 lung) [µM],GI50 (HOP-62 NSCLC) [µM],GI50 (MALME-3M melanoma) [µM],GI50 (SF-295 CNS) [µM],GI50 (SR leukemia)
Cc1ccc([N+](=O)[O-])cc1S(=O)(=O)Nc1ccc(C2=NOC(c3ccccc3O)C2)cc1 (stereo unspecified),13.4 µM,> 100 µM,6.85 µM,9.04 µM,> 100 µM,> 100 µM,55.2 µM,24.1 µM,98.4 µM,> 100 µM,> 100 µM,> 100 µM,–,–,–,–,–,–,–,–
CCO[C@]12CCC[C@H]1[C@@H]1C(=O)c3ccccc3C(=O)C1=C(C)O2,59.1 µM,> 100 µM,> 100 µM,> 100 µM,> 100 µM,> 100 µM,> 100 µM,50.3 µM,> 100 µM,> 100 µM,> 100 µM,> 100 µM,–,–,–,–,–,–,–,–
O=C(NC(Cc1ccc(I)cc1)C(=O)O)c1ccc(Cl)cc1 (stereo unspecified),–,> 100 µM,–,> 100 µM,> 100 µM,> 100 µM,> 100 µM,> 100 µM,> 100 µM,> 100 µM,> 100 µM,> 100 µM,–,–,–,–,–,–,–,–
NCCNCCNc1ccc(NCCNCCN)c2c1C(=O)c1c(O)ccc(O)c1C2=O,23.8 µM,–,> 100 µM,> 100 µM,> 100 µM,> 100 µM,> 100 µM,> 100 µM,> 100 µM,> 100 µM,> 100 µM,> 100 µM,–,–,–,–,–,–,–,–
CNC(C)Cc1ccccc1OC (stereo unspecified),–,> 100 µM,> 100 µM,> 100 µM,> 100 µM,> 100 µM,> 100 µM,> 100 µM,> 100 µM,> 100 µM,> 100 µM,> 100 µM,–,–,–,–,–,–,–,–
c1c2c(cc3c1OCO3)-c1cc3ccc4c(c3c[n+]1CC2)OCO4,> 12.5 µM,> 12.5 µM,5.9 µM,> 12.5 µM,> 12.5 µM,> 12.5 µM,> 8.5 µM,> 3.26 µM,> 12.5 µM,> 12.5 µM,3.04 µM,3.52 µM,–,–,–,–,–,–,–,–
C[N+](C)(C)CCN[N+]1(C)CCCc2ccccc21 (stereo unspecified),> 100 µM,> 100 µM,> 100 µM,90.6 µM,> 100 µM,> 100 µM,> 100 µM,> 100 µM,> 100 µM,> 100 µM,50.3 µM,> 100 µM,–,–,–,–,–,–,–,–
CC1CC(Br)C(=O)O1 (stereo unspecified),–,> 100 µM,> 100 µM,> 100 µM,> 100 µM,> 100 µM,> 100 µM,> 100 µM,> 100 µM,> 100 µM,> 100 µM,> 100 µM,–,–,–,–,–,–,–,–
COC(=O)/C=C1\CCCN1CCc1cc2c(cc1CC#N)OCO2,> 100 µM,> 100 µM,> 100 µM,> 100 µM,> 100 µM,> 100 µM,66.8 µM,69.1 µM,> 100 µM,> 100 µM,> 100 µM,> 100 µM,–,–,–,–,–,–,–,–
Oc1ccc(-c2nc3cc(F)ccc3s2)cc1,16 µM,36.9 µM,47.6 µM,> 100 µM,74 µM,53.3 µM,–,41.5 µM,83.8 µM,63 µM,43.3 µM,48.6 µM,–,–,–,–,–,–,–,–
O=C1OC2(OC2c2ccc(Cl)cc2)c2ccccc21 (stereo unspecified),> 100 µM,> 100 µM,> 100 µM,> 100 µM,> 100 µM,> 100 µM,> 100 µM,> 100 µM,–,41.6 µM,> 100 µM,> 100 µM,–,–,–,–,–,–,–,–
CO/N=C(\C)c1cccc(Nc2nc3ccccc3c3occc23)c1,34.2 µM,–,30.7 µM,37.3 µM,32.5 µM,26.9 µM,29.1 µM,33.1 µM,–,28.7 µM,29.7 µM,25.9 µM,–,–,–,–,–,–,–,–
CN(C)c1ccc(/C=c2/c3ccccc3n3c2cc(NC(=O)NCCC[N+](C)(C)C)[n+]3C)cc1,> 100 µM,> 100 µM,> 100 µM,> 100 µM,> 100 µM,–,–,> 100 µM,> 100 µM,> 100 µM,> 100 µM,> 100 µM,–,–,–,–,–,–,–,–
CS(=O)(=O)OCCN(CCOS(C)(=O)=O)c1ccc(/C=N/Nc2ncnc3nc[nH]c23)cc1,46 µM,39.2 µM,34.1 µM,40 µM,46.1 µM,> 100 µM,33.6 µM,39.8 µM,39 µM,74.8 µM,55.2 µM,46.6 µM,–,–,–,–,–,–,–,–
O=C(CSc1nc2ccc(I)cc2c(=O)n1Cc1ccccc1)NN1C(=O)c2ccccc2C1=O,> 100 µM,28.4 µM,> 100 µM,95 µM,36.4 µM,57.3 µM,21.8 µM,28.6 µM,44.7 µM,24 µM,62.8 µM,29.4 µM,–,–,–,–,–,–,–,–
Cc1ccc(N=NC(C2=NC(=O)CS2)c2nc3ccccc3[nH]2)cc1 (stereo unspecified),> 100 µM,–,> 100 µM,76.7 µM,> 100 µM,> 100 µM,> 100 µM,> 100 µM,> 100 µM,69.3 µM,> 100 µM,> 100 µM,–,–,–,–,–,–,–,–
Cc1c2cc[n+](C)cc2c(C)c2c1oc1ccccc12,30.5 µM,15.8 µM,31.5 µM,28.7 µM,2.71 µM,4.57 µM,5.49 µM,16.7 µM,11.2 µM,11.2 µM,3.99 µM,12.2 µM,–,–,–,–,–,–,–,–
COC(=O)NC1C(C)OC(OC2C/C=C(/C)C3C=CC4C(OC5CC(OC6CC(OC7CC(O)C(O)C(C)O7)C(OC7CC(O)C(OC)C(C)O7)C(C)O6)C(O)C(C)O5)C(C)CC(C)C4C3(C)/C(O)=C3\C(=O)OC4(CC(C)C(CO)=CC4/C=C\2C)C3=O)CC1(C)[N+](=O)[O-] (stereo unspecified),24.2 µM,87.2 µM,77 µM,31.7 µM,> 100 µM,> 100 µM,16.7 µM,–,41.5 µM,37.8 µM,–,53.2 µM,–,–,–,–,–,–,–,–
CCSc1nc(-c2cccs2)nc2ccc(I)cc12,> 100 µM,> 100 µM,> 100 µM,> 100 µM,> 100 µM,> 100 µM,> 100 µM,> 100 µM,> 100 µM,> 100 µM,–,> 100 µM,–,–,–,–,–,–,–,–
CCCCCCCN(CCCCCCC)CC(O)c1cc2ccccc2c2cc(Br)ccc12 (stereo unspecified),> 100 µM,69.9 µM,76.7 µM,> 100 µM,54.8 µM,46.7 µM,93.9 µM,36.4 µM,> 100 µM,> 100 µM,40.7 µM,–,–,–,–,–,–,–,–,–
Cc1[nH]n(-c2ccccc2)c(=O)c1C(N(CCc1ccccc1)C1=NCC(C)S1)(C(F)(F)F)C(F)(F)F (stereo unspecified),90.4 µM,22.4 µM,32.2 µM,97.8 µM,> 100 µM,48.5 µM,50.1 µM,> 100 µM,20 µM,87.6 µM,97.9 µM,84.2 µM,–,–,–,–,–,–,–,–
COC(=O)c1ccccc1C1=C([N+](=O)[O-])C(c2cccc(Br)c2)C(C#N)=C(N)O1 (stereo unspecified),> 100 µM,> 100 µM,77.5 µM,> 100 µM,93.3 µM,> 100 µM,92.6 µM,51.7 µM,88.2 µM,> 100 µM,–,> 100 µM,–,–,–,–,–,–,–,–
COc1cc([N+](=O)[O-])ccc1NC(=O)c1cccc([N+](=O)[O-])c1O,> 100 µM,68 µM,> 100 µM,> 100 µM,> 100 µM,71.8 µM,70.5 µM,> 100 µM,96.9 µM,> 100 µM,63.5 µM,81.6 µM,–,–,–,–,–,–,–,–
CCc1ccc2c(c1)C(=O)c1c-2n(CCCN)c(=O)c2cc([N+](=O)[O-])ccc12,–,–,3.08 µM,–,–,2.95 µM,–,2.96 µM,3.29 µM,2.78 µM,2.8 µM,2.47 µM,1.56,1.48,1.58,1.81,1.37,1.42,1.07,–
N=C(N)SCc1cccc([N+](=O)[O-])c1,–,> 73.7 µM,–,> 91.2 µM,> 100 µM,> 96.1 µM,89 µM,39.9 µM,> 83 µM,> 78.1 µM,> 76.6 µM,> 100 µM,–,–,–,–,–,–,–,–
CC1(C=O)CCC23COC4(CCC5C6(C)CCC(OC7OCC(OC8OC(CO)C(O)C(OC9OC(CO)C(O)C(O)C9O)C8OC8OCC(O)C(O)C8O)C(O)C7OC7OC(CO)C(O)C(O)C7O)C(C)(C)C6CCC5(C)C4(C)CC2O)C3C1 (stereo unspecified),0.617 µM,2.98 µM,2.85 µM,–,2.47 µM,–,2.51 µM,2.79 µM,–,3.6 µM,–,2.23 µM,–,–,–,–,–,–,–,–
CN(C)CCCN1c2ccc([N+](=O)[O-])cc2CCc2cc([N+](=O)[O-])ccc21,> 100 µM and 31.4 µM,36.9 µM and 32.4 µM,31 µM and 28 µM,42.9 µM and 25.3 µM,30.2 µM and 29 µM,29.3 µM and 28.4 µM,24.8 µM and 29.3 µM,30.2 µM and 30.5 µM,33.7 µM and 34.9 µM,30.4 µM and 25.6 µM,23.2 µM and 32.8 µM,29.4 µM and 29.8 µM,–,–,–,–,–,–,–,30.4 µM and 13.1 µM
c1ccc([P+](c2ccccc2)(c2ccccc2)c2ccc(-c3ccc([P+](c4ccccc4)(c4ccccc4)c4ccccc4)cc3)cc2)cc1,–,62 µM,> 100 µM,> 100 µM,> 100 µM,97.1 µM,–,52.4 µM,55.3 µM,> 100 µM,89.9 µM,76.9 µM,–,–,–,–,–,–,–,–
C[n+]1c2ccccc2c(CNC(CS)C(=O)O)c2ccccc21 (stereo unspecified),32.4 µM,76.8 µM,> 100 µM,36.7 µM,> 100 µM,> 100 µM,47.7 µM,62 µM,> 100 µM,39.1 µM,92.1 µM,63.4 µM,–,–,–,–,–,–,–,–
